Laboratory results: patent US4740233A, “Substituted 1,2,4-triazolo[1,5-a]-pyrimidine-2-sulfonamides and compositions and methods of controlling undesired vegetation and suppressing the nitrification of ammonium nitrogen in soil” (The Dow Chemical Company, priority 1986, dated 1988)

What was measured:
cotton = test: Preemergent control of plant species; assay type: in vivo, Gossypium spp.; details: Gossypium hirsutum, pre-emergence, 336 h; 0.25 lb/acre; read-out: percent preemergent control
Outline: (§1)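 Seeds planted in good agricultural soil beds; active ingredients then applied to the bed surface as aqueous emulsion at listed rates. Beds kept two weeks in greenhouse with watering. Control scored against water-treated beds.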

rape = test: Preemergent control of plant species; assay type: in vivo, Brassica napus; details: Brassica napus, pre-emergence, 336 h; 0.25 lb/acre; read-out: percent preemergent control
Outline: as §1

soybean = test: Preemergent control of plant species; assay type: in vivo, Glycine max.; details: Glycine max, pre-emergence, 336 h; 0.25 lb/acre; read-out: percent preemergent control
Outline: as §1

sugar beet = test: Preemergent control of plant species; assay type: in vivo, Beta saccharifera; details: Beta vulgaris, pre-emergence, 336 h; 0.25 lb/acre; read-out: percent preemergent control
Outline: as §1

jimsonweed = test: Preemergent control of plant species; assay type: in vivo, Datura stramonium; details: Datura stramonium, pre-emergence, 336 h; 0.25 lb/acre; read-out: percent preemergent control
Outline: as §1

annual morning glory = test: Preemergent control of plant species; assay type: in vivo, Ipomoea spp.; details: Ipomoea, pre-emergence, 336 h; 0.25 lb/acre; read-out: percent preemergent control
Outline: as §1

pigweed = test: Preemergent control of plant species; assay type: in vivo, Amaranthus spp.; details: Amaranthus retroflexus, pre-emergence, 336 h; 0.25 lb/acre; read-out: percent preemergent control
Protocol: (§2) The seeds of various species of plants were planted in beds of good agricultural soil in a greenhouse. A number of compositions of the present invention, generally in the nature of an aqueous emulsion, were applied at rates listed in the table so as to deposit a predetermined amount of active ingredients uniformly throughout the surface of the bed. Another seed bed was treated only with water to serve as a control. After treatment the seed beds were maintained for two weeks under greenhouse conditions conducive for good plant growth and watered as necessary. Control refers to the reduction in growth compared to the observed results of the same untreated species.

velvetleaf = test: Preemergent control of plant species; assay type: in vivo, Abutilon theophrasti; details: Abutilon theophrasti, pre-emergence, 336 h; 0.25 lb/acre; read-out: percent preemergent control
Outline: as §1

corn = test: Preemergent control of plant species; assay type: in vivo, Zea mays; details: Zea mays, pre-emergence, 336 h; 0.25 lb/acre; read-out: percent preemergent control
Outline: as §1

rice [1] = test: Preemergent control of plant species; assay type: in vivo, Oryza sativa; details: Oryza sativa, pre-emergence, 336 h; 0.25 lb/acre; read-out: percent preemergent control
Outline: as §1

sorghum = test: Preemergent control of plant species; assay type: in vivo, Sorghum vulgare; details: Sorghum, pre-emergence, 336 h; 0.25 lb/acre; read-out: percent preemergent control
Outline: as §1

wheat = test: Preemergent control of plant species; assay type: in vivo, Triticum aestivum; details: Triticum aestivum, pre-emergence, 336 h; 0.25 lb/acre; read-out: percent preemergent control
Outline: as §1

barnyardgrass [2] = test: Preemergent control of plant species; assay type: in vivo, Echinochloa crusgalli; details: Echinochloa crus-galli, pre-emergence, 336 h; 0.25 lb/acre; read-out: percent preemergent control
Outline: as §1

crabgrass = test: Preemergent control of plant species; assay type: in vivo, Digitaria spp.; details: Digitaria sanguinalis, pre-emergence, 336 h; 0.25 lb/acre; read-out: percent preemergent control
Protocol: as §2

johnson grass = test: Preemergent control of plant species; assay type: in vivo, Sorghum halepense; details: Sorghum halepense, pre-emergence, 336 h; 0.25 lb/acre; read-out: percent preemergent control
Outline: as §1

wild oats = test: Preemergent control of plant species; assay type: in vivo; details: Avena fatua, pre-emergence, 336 h; 0.25 lb/acre; read-out: percent preemergent control
Outline: as §1

yellow foxtail = test: Preemergent control of plant species; assay type: in vivo, Setaria lutescens; details: Setaria, pre-emergence, 336 h; 0.25 lb/acre; read-out: percent preemergent control
Outline: as §1

yellow nutsedge [3] = test: Preemergent control of plant species; assay type: in vivo, Cyperus esculentus; details: Cyperus, pre-emergence, 336 h; 0.25 lb/acre; read-out: percent preemergent control
Outline: as §1

rice [4] = test: Control of aquatic plant species (paddy water); assay type: in vivo, Oryza sativa; details: Oryza sativa, 216 h, nine days, read-out: Percent control
Outline: (§3)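 Percent control is scored nine days after treatment. Plants go into about 2 inches of soil at the 1-2 inch stage and are flooded to about 1 inch, then test compound in acetone concentrate is injected into the standing water at a volume chosen for the desired concentration.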

barnyardgrass [5] = test: Control of aquatic plant species (paddy water); assay type: in vivo, Echinochloa crusgalli; details: Echinochloa crus-galli, 216 h, nine days, read-out: Percent control
Protocol: In testing for such utility, the plant species to be tested were transplanted into 16 oz. containers into about 2 inches of soil when they were in the 1-2 inch stage and then flooded to a depth of about 1 inch. An acetone concentrate of the chemical to be tested was then injected into the paddy water, the volume injected being varied as desired to provide the desired concentration. Percent control was evaluated nine days after application.

sprangletop = test: Control of aquatic plant species (paddy water); assay type: in vivo, Leptochloa filiformis; details: Leptochloa filiformis, 216 h, nine days, read-out: Percent control
Outline: as §3

yellow nutsedge [6] = test: Control of aquatic plant species (paddy water); assay type: in vivo, Cyperus esculentus; details: Cyperus, 216 h, nine days, read-out: Percent control
Outline: as §3

[7] = test system: nitrification of ammonium nitrogen; test: Suppression of nitrification of ammonium nitrogen in soil; details: 27° C.
Outline: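 Value is % NH4-N remaining after a two-week, 27° C incubation of treated soil held at 1/3 bar tension moisture. Nitrate was measured with an ion-selective electrode after extraction with ammonium sulfate solution and 10 min shaking.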

Structure (SMILES)	plant injury at 280.212 g/ha (cotton) [%]	plant injury at 280.212 g/ha (rape) [%]	plant injury at 280.212 g/ha (soybean) [%]	plant injury at 280.212 g/ha (sugar beet) [%]	pest or weed control at 280.212 g/ha (jimsonweed) [%]	pest or weed control at 280.212 g/ha (annual morning glory) [%]	pest or weed control at 280.212 g/ha (pigweed) [%]	pest or weed control at 280.212 g/ha (velvetleaf) [%]	plant injury at 280.212 g/ha (corn) [%]	plant injury at 280.212 g/ha (rice [1]) [%]	plant injury at 280.212 g/ha (sorghum) [%]	plant injury at 280.212 g/ha (wheat) [%]	pest or weed control at 280.212 g/ha (barnyardgrass [2]) [%]	pest or weed control at 280.212 g/ha (crabgrass) [%]	pest or weed control at 280.212 g/ha (johnson grass) [%]	pest or weed control at 280.212 g/ha (wild oats) [%]	pest or weed control at 280.212 g/ha (yellow foxtail) [%]	pest or weed control at 280.212 g/ha (yellow nutsedge [3]) [%]	% NH4-N Remaining After 2 Weeks Incubation ([7]; 1 ppm) [%]	other results
COC(=O)c1cccc(C)c1NS(=O)(=O)c1nc2nc(C)cc(C)n2n1 [Compound 50]	80	95	95	100	100	80	100	93	99	97	100	100	95	25	95	60	95	99	73	pest or weed control at 125 g/ha (rice [4]; 0.125 Kg/Ha): 97%; pest or weed control at 125 g/ha (barnyardgrass [5]; 0.125 Kg/Ha): 97%; pest or weed control at 125 g/ha (sprangletop; 0.125 Kg/Ha): 97%; pest or weed control at 125 g/ha (yellow nutsedge [6]; 0.125 Kg/Ha): 97%; % NH4-N Remaining After 2 Weeks Incubation ([7]; 0.01 ppm): 0%; % NH4-N Remaining After 2 Weeks Incubation ([7]; 0.1 ppm): 38%; % NH4-N Remaining After 2 Weeks Incubation ([7]; 10 ppm): 92%
Cc1cc(C)n2nc(S(=O)(=O)Nc3c(F)cccc3C(=O)OC(C)C)nc2n1 [Compound 51]	93	95	90	95	95	80	100	95	97	80	97	97	97	95	95	100	97	100	78	pest or weed control at 31 g/ha (rice [4]; 0.031 Kg/Ha): 0%; pest or weed control at 1000 g/ha (rice [4]; 1.0 Kg/Ha): 95%; pest or weed control at 31 g/ha (barnyardgrass [5]; 0.031 Kg/Ha): 35%; pest or weed control at 1000 g/ha (barnyardgrass [5]; 1.0 Kg/Ha): 97%; pest or weed control at 31 g/ha (sprangletop; 0.031 Kg/Ha): 0%; pest or weed control at 1000 g/ha (sprangletop; 1.0 Kg/Ha): 70%; pest or weed control at 31 g/ha (yellow nutsedge [6]; 0.031 Kg/Ha): 93%; pest or weed control at 1000 g/ha (yellow nutsedge [6]; 1.0 Kg/Ha): 97%; % NH4-N Remaining After 2 Weeks Incubation ([7]; 0.06 ppm): 33%; % NH4-N Remaining After 2 Weeks Incubation ([7]; 0.25 ppm): 58%; % NH4-N Remaining After 2 Weeks Incubation ([7]; 4 ppm): 87%
